Assay results from ChEMBL document CHEMBL3046652, “Photodimerization of heteroaryl chalcones: comparative antimicrobial activities of chalcones and their photoproducts” (2012).
≈ marks a conversion by molar mass, not a printed value.

Experiments:
Assay type in all cases: functional
Aspergillus niger [1] = experiment: Antimicrobial activity against Aspergillus niger at 10 ug/disk by disk diffusion method; conditions: read-out: DIZ
Proteus vulgaris [2] = experiment: Antimicrobial activity against Proteus vulgaris at 10 ug/disk by disk diffusion method; conditions: read-out: DIZ
Candida albicans [3] = experiment: Antimicrobial activity against Candida albicans at 20 ug/disk by disk diffusion method; conditions: read-out: DIZ
Priestia megaterium [4] = experiment: Antimicrobial activity against Bacillus megaterium by disk diffusion method
Escherichia coli [5] = experiment: Antimicrobial activity against Escherichia coli by disk diffusion method
Fusarium verticillioides [6] = experiment: Antimicrobial activity against Fusarium verticillioides at 20 ug/disk by disk diffusion method; conditions: read-out: DIZ
Micrococcus luteus [7] = experiment: Antimicrobial activity against Micrococcus luteus at 10 ug/disc by disk diffusion method; conditions: read-out: DIZ
Klebsiella pneumoniae [8] = experiment: Antimicrobial activity against Klebsiella pneumoniae by disk diffusion method
Citrobacter freundii [9] = experiment: Antimicrobial activity against Citrobacter freundii at 10 ug/disk by disk diffusion method; conditions: read-out: DIZ
Pseudomonas aeruginosa [10] = experiment: Antimicrobial activity against Pseudomonas aeruginosa by disk diffusion method
Aspergillus oryzae [11] = experiment: Antimicrobial activity against Aspergillus oryzae at 10 ug/disk by disk diffusion method; conditions: read-out: DIZ
Escherichia coli [12] = experiment: Antimicrobial activity against Escherichia coli at 10 ug/disk by disk diffusion method; conditions: read-out: DIZ
Serratia marcescens [13] = experiment: Antimicrobial activity against Serratia marcescens at 10 ug/disk by disk diffusion method; conditions: read-out: DIZ
Micrococcus luteus [14] = experiment: Antimicrobial activity against Micrococcus luteus by disk diffusion method
Proteus vulgaris [15] = experiment: Antimicrobial activity against Proteus vulgaris by disk diffusion method
Citrobacter freundii [16] = experiment: Antimicrobial activity against Citrobacter freundii by disk diffusion method
Pseudomonas aeruginosa [17] = experiment: Antimicrobial activity against Pseudomonas aeruginosa at 10 ug/disk by disk diffusion method; conditions: read-out: DIZ
Serratia marcescens [18] = experiment: Antimicrobial activity against Serratia marcescens by disk diffusion method
Priestia megaterium [19] = experiment: Antimicrobial activity against Bacillus megaterium at 10 ug/disk by disk diffusion method; conditions: read-out: DIZ
Klebsiella pneumoniae [20] = experiment: Antimicrobial activity against Klebsiella pneumoniae at 10 ug/disk by disk diffusion method; conditions: read-out: DIZ
Salmonella typhi [21] = experiment: Antimicrobial activity against Salmonella enterica subsp. enterica serovar Typhi by disk diffusion method
Salmonella typhi [22] = experiment: Antimicrobial activity against Salmonella enterica subsp. enterica serovar Typhi at 10 ug/disk by disk diffusion method; conditions: read-out: DIZ
Candida albicans [23] = experiment: Antimicrobial activity against Candida albicans at 10 ug/disk by disk diffusion method; conditions: read-out: DIZ
Aspergillus oryzae [24] = experiment: Antimicrobial activity against Aspergillus oryzae at 30 ug/disk by disk diffusion method; conditions: read-out: DIZ
Klebsiella pneumoniae [25] = experiment: Antimicrobial activity against Klebsiella pneumoniae at 20 ug/disk by disk diffusion method; conditions: read-out: DIZ
Citrobacter freundii [26] = experiment: Antimicrobial activity against Citrobacter freundii at 20 ug/disk by disk diffusion method; conditions: read-out: DIZ
Fusarium verticillioides [27] = experiment: Antimicrobial activity against Fusarium verticillioides at 40 ug/disk by disk diffusion method; conditions: read-out: DIZ
Aspergillus niger [28] = experiment: Antimicrobial activity against Aspergillus niger at 50 ug/disk by disk diffusion method; conditions: read-out: DIZ
Candida albicans [29] = experiment: Antimicrobial activity against Candida albicans at 40 ug/disk by disk diffusion method; conditions: read-out: DIZ
Pseudomonas aeruginosa [30] = experiment: Antimicrobial activity against Pseudomonas aeruginosa at 40 ug/disk by disk diffusion method; conditions: read-out: DIZ
Fusarium verticillioides [31] = experiment: Antimicrobial activity against Fusarium verticillioides at 10 to 60 ug/disk by disk diffusion method
Candida albicans [32] = experiment: Antimicrobial activity against Candida albicans at 10 to 60 ug/disk by disk diffusion method
Escherichia coli [33] = experiment: Antimicrobial activity against Escherichia coli at 10 to 60 ug/disk by disk diffusion method
Salmonella typhi [34] = experiment: Antimicrobial activity against Salmonella enterica subsp. enterica serovar Typhi at 10 to 60 ug/disk by disk diffusion method
Proteus vulgaris [35] = experiment: Antimicrobial activity against Proteus vulgaris at 10 to 60 ug/disk by disk diffusion method
Serratia marcescens [36] = experiment: Antimicrobial activity against Serratia marcescens at 10 to 60 ug/disk by disk diffusion method
Priestia megaterium [37] = experiment: Antimicrobial activity against Bacillus megaterium at 10 to 60 ug/disk by disk diffusion method
Pseudomonas aeruginosa [38] = experiment: Antimicrobial activity against Pseudomonas aeruginosa at 10 to 60 ug/disk by disk diffusion method
Citrobacter freundii [39] = experiment: Antimicrobial activity against Citrobacter freundii at 10 to 60 ug/disk by disk diffusion method
Aspergillus niger [40] = experiment: Antimicrobial activity against Aspergillus niger at 10 to 60 ug/disk by disk diffusion method
Micrococcus luteus [41] = experiment: Antimicrobial activity against Micrococcus luteus at 10 to 60 ug/disc by disk diffusion method
Klebsiella pneumoniae [42] = experiment: Antimicrobial activity against Klebsiella pneumoniae at 10 to 60 ug/disk by disk diffusion method
Aspergillus oryzae [43] = experiment: Antimicrobial activity against Aspergillus oryzae at 10 to 60 ug/disk by disk diffusion method

Row | Structure (SMILES) | zone of inhibition at 10 µg/disc (Aspergillus niger [1]) [mm] | zone of inhibition at 10 µg/disc (Proteus vulgaris [2]) [mm] | MIC (Priestia megaterium [4]) [µg/mL] | MIC (Escherichia coli [5]) [µg/mL] | zone of inhibition at 20 µg/disc (Fusarium verticillioides [6]) [mm] | zone of inhibition at 10 µg/disc (Micrococcus luteus [7]) [mm] | MIC (Klebsiella pneumoniae [8]) [µg/mL] | zone of inhibition at 10 µg/disc (Citrobacter freundii [9]) [mm] | MIC (Pseudomonas aeruginosa [10]) [µg/mL] | zone of inhibition at 10 µg/disc (Aspergillus oryzae [11]) [mm] | zone of inhibition at 10 µg/disc (Escherichia coli [12]) [mm] | zone of inhibition at 10 µg/disc (Serratia marcescens [13]) [mm] | MIC (Micrococcus luteus [14]) [µg/mL] | MIC (Proteus vulgaris [15]) [µg/mL] | MIC (Citrobacter freundii [16]) [µg/mL] | zone of inhibition at 10 µg/disc (Pseudomonas aeruginosa [17]) [mm] | MIC (Serratia marcescens [18]) [µg/mL] | zone of inhibition at 10 µg/disc (Priestia megaterium [19]) [mm] | MIC (Salmonella typhi [21]) [µg/mL] | zone of inhibition at 10 µg/disc (Salmonella typhi [22]) [mm] | also measured
1 | O=C(/C=C/c1ccccc1)c1ccco1 | 11 | 8 | 10 (≈ 50.4 µM) | 10 (≈ 50.4 µM) | 7 | 11 | 10 (≈ 50.4 µM) | 13 | 10 (≈ 50.4 µM) | 8 | 5 | 5 | 10 (≈ 50.4 µM) | 10 (≈ 50.4 µM) | 10 (≈ 50.4 µM) | 5 | 10 (≈ 50.4 µM) | 11 | 10 (≈ 50.4 µM) | 5 | zone of inhibition at 20 µg/disc (Candida albicans [3]): 7 mm; zone of inhibition at 10 µg/disc (Klebsiella pneumoniae [20]): 7 mm
2 | O=C(/C=C/c1ccco1)c1ccccc1 | 8 | 9 | 20 (≈ 101 µM) | 10 (≈ 50.4 µM) | 7 | 9 | 10 (≈ 50.4 µM) | 7 | 10 (≈ 50.4 µM) | – | 5 | 7 | 10 (≈ 50.4 µM) | 20 (≈ 101 µM) | 10 (≈ 50.4 µM) | 5 | 10 (≈ 50.4 µM) | 9 | 10 (≈ 50.4 µM) | 5 | zone of inhibition at 10 µg/disc (Candida albicans [23]): 9 mm; zone of inhibition at 30 µg/disc (Aspergillus oryzae [24]): 8 mm; zone of inhibition at 10 µg/disc (Klebsiella pneumoniae [20]): 6 mm
3 | O=C(/C=C/c1ccc[nH]1)c1ccccc1 | – | 5 | 10 (≈ 50.7 µM) | 10 (≈ 50.7 µM) | – | 7 | 10 (≈ 50.7 µM) | – | 10 (≈ 50.7 µM) | 9 | 6 | 7 | 10 (≈ 50.7 µM) | 10 (≈ 50.7 µM) | 10 (≈ 50.7 µM) | – | 10 (≈ 50.7 µM) | 12 | 10 (≈ 50.7 µM) | 5 | zone of inhibition at 20 µg/disc (Klebsiella pneumoniae [25]): 9 mm; zone of inhibition at 20 µg/disc (Citrobacter freundii [26]): 9 mm; zone of inhibition at 40 µg/disc (Fusarium verticillioides [27]): 6 mm; zone of inhibition at 50 µg/disc (Aspergillus niger [28]): 8 mm; zone of inhibition at 40 µg/disc (Candida albicans [29]): 7 mm; zone of inhibition at 40 µg/disc (Pseudomonas aeruginosa [30]): 9 mm
4 | O=C(c1cccs1)C1C(C(=O)c2cccs2)C(c2ccccc2)C1c1ccccc1 (configuration not stated) | – | – | – | – | – | – | – | – | – | – | – | – | – | – | – | – | – | – | – | – | diameter of the inhibition zone (DIZ) (Fusarium verticillioides [31]): 5 mm; diameter of the inhibition zone (DIZ) (Candida albicans [32]): 5 mm; diameter of the inhibition zone (DIZ) (Escherichia coli [33]): 5 mm; diameter of the inhibition zone (DIZ) (Salmonella typhi [34]): 6 mm; diameter of the inhibition zone (DIZ) (Proteus vulgaris [35]): 5 mm; diameter of the inhibition zone (DIZ) (Serratia marcescens [36]): 5 mm; diameter of the inhibition zone (DIZ) (Priestia megaterium [37]): 9 mm; diameter of the inhibition zone (DIZ) (Pseudomonas aeruginosa [38]): 5 mm; diameter of the inhibition zone (DIZ) (Citrobacter freundii [39]): 5 mm; diameter of the inhibition zone (DIZ) (Aspergillus niger [40]): 5 mm; diameter of the inhibition zone (DIZ) (Micrococcus luteus [41]): 7 mm; diameter of the inhibition zone (DIZ) (Klebsiella pneumoniae [42]): 5 mm; diameter of the inhibition zone (DIZ) (Aspergillus oryzae [43]): 5 mm
5 | OC(/C=C/c1ccc[nH]1)(c1ccccc1)C(O)(/C=C/c1ccc[nH]1)c1ccccc1 (configuration not stated) | – | – | – | – | – | – | – | – | – | – | – | – | – | – | – | – | – | – | – | – | diameter of the inhibition zone (DIZ) (Fusarium verticillioides [31]): 5 mm; diameter of the inhibition zone (DIZ) (Candida albicans [32]): 5 mm; diameter of the inhibition zone (DIZ) (Escherichia coli [33]): 5 mm; diameter of the inhibition zone (DIZ) (Salmonella typhi [34]): 5 mm; diameter of the inhibition zone (DIZ) (Proteus vulgaris [35]): 5 mm; diameter of the inhibition zone (DIZ) (Serratia marcescens [36]): 5 mm; diameter of the inhibition zone (DIZ) (Priestia megaterium [37]): 5 mm; diameter of the inhibition zone (DIZ) (Pseudomonas aeruginosa [38]): 5 mm; diameter of the inhibition zone (DIZ) (Citrobacter freundii [39]): 5 mm; diameter of the inhibition zone (DIZ) (Aspergillus niger [40]): 5 mm; diameter of the inhibition zone (DIZ) (Micrococcus luteus [41]): 5 mm; diameter of the inhibition zone (DIZ) (Klebsiella pneumoniae [42]): 5 mm; diameter of the inhibition zone (DIZ) (Aspergillus oryzae [43]): 9 mm
